Measurements as given in PMC9668969 (Nature Communications, 2022).

System: WT ELIC
Test: Fluorescence stopped-flow liposomal Tl+ flux assay, symmetric liposomes
Format: biochemical, Erwinia chrysanthemi
Method: The fluorescence sequential-mixing stopped-flow liposomal flux measurements were carried using an SX20 stopped-flow spectrofluorometer (Applied Photophysics) and Pro-Data SX software[13],[30]. 7.5 mg of the respective lipid mixture (POPC, 1:1 POPC: POPE, 1:1 POPC:POPG, 3:1 POPC:POPE, 3:1 POPC:POPG, 2:1:1 POPC:POPE:POPG) was dried in a glass vial to a thin film under a constant stream of N2. The lipids were then further dried under vacuum in a desiccator overnight. The following day the lipids were hydrated in 500 µl of reconstitution buffer (100 mM NaNO3, 10 mM HEPES, pH 7) (Buffer R), 250 µl of 75 mM 8-Aminonaphthalene-1,3,6-Trisulfonic Acid (ANTS, ThermoFisher Scientific) in buffer R, and doped with ~18 mg of CHAPS (Anatrace). The mixture was vortexed and then sonicated with heat until completely solubilized. Following the sonication, the solution was brought to RT then 3.5 µl of 6.7 mg/ml ELIC in Buffer A with 0.02% DDM was added (3 µg per mg of lipid). This combined solution was incubated at RT for 30 min, followed by the addition of 1 ml of 1:1 v/v SM-2 BioBeads in Buffer R and an additional 250 µl of 75 mM ANTS in Buffer R. This mixture was incubated at RT for 2.5 hr with gentle mixing. The liposome suspension was then extruded with an Avanti mini-extruder and 0.1 µm membrane (30×). The extruded liposomes were stored at 13 °C overnight with gentle rotation. The next day, the liposomes were diluted to 2.5 mL using assay buffer (140 mM NaNO3, 10 mM HEPES, pH 7) (Stopped-flow Buffer A), loaded into a PD-10 desalting column (Cytiva), eluted with 3 mL of Stopped-flow Buffer A and subsequently diluted 5-fold with Stopped-flow Buffer A.
Using propylamine as the agonist, the assay and analysis was carried out as previously described[13],[30]. ELIC-containing liposomes were first mixed 1:1 with Buffer A containing 2× the concentration of propylamine. After a variable delay of 10 ms to 25 s, the sample was then mixed 1:1 with a quenching buffer (90 mM NaNO3, 50 mM TlNO3, 10 mM HEPES, pH 7), and ANTS fluorescence (ex. 360 nm, fluorescence above 420 nm) was recorded for 1 s. For each delay time, 5 repeat measurements were obtained. The data were collected using Applied Photophysics Pro-Data SX software. The fluorescence quenching traces were fit to a stretched exponential (Eq. 2a) and the rate of Tl^+ influx was determined at 2 ms (Eq. 2b).2a Ft=F∞+F0−F∞⋅e^−t/τ^β 2b kt=β/τ⋅2ms/τ^(β−1) where Ft, F∞, F0 are the fluorescence at time t, final fluorescence and initial fluorescence. τ is the time constant, β the stretched exponential factor, and kt the calculated rate of Tl^+ influx at 2 ms. The time course of desensitization was also fit to a double exponential and a weighted time constant was calculated as was done for the patch-clamp data using Origin 2019b. All replicates were taken from independent samples.

CCCCCCCC/C=C\CCCCCCCC(=O)OC(COC(=O)CCCCCCCCCCCCCCC)COP(=O)(O)OCC(O)CO (stereo not drawn) [POPG, 1-palmitoyl-2-oleoyl-phosphatidylglycerol]
time constant of desensitization (25% POPG in symmetric liposomes): ~ 6 s
effect on desensitization (25–50 mol% in binary mixtures with POPC, 10 mM propylamine): slowed desensitization
time constant of desensitization (50% POPG in symmetric liposomes): ~ 12 s
